# In ChEMBL document CHEMBL1201862, “PubChem BioAssay data set” (2004):
# Active and inactive are the calls of the source.
# Tests used:
# Format in all cases: functional
# [1] = biological target: T1, Protein RecA (Mycobacterium tuberculosis, UniProt P9WHJ3); assay: Fluorescence Cell-Free Homogeneous Dose Retest to Identify Inhibitors of RecA-Intein Splicing Activity. [Related pubchem assays (depositor defined):AID2097, AID2223, AID489010, AID492950]
# T1 sequence (P9WHJ3 whole entry): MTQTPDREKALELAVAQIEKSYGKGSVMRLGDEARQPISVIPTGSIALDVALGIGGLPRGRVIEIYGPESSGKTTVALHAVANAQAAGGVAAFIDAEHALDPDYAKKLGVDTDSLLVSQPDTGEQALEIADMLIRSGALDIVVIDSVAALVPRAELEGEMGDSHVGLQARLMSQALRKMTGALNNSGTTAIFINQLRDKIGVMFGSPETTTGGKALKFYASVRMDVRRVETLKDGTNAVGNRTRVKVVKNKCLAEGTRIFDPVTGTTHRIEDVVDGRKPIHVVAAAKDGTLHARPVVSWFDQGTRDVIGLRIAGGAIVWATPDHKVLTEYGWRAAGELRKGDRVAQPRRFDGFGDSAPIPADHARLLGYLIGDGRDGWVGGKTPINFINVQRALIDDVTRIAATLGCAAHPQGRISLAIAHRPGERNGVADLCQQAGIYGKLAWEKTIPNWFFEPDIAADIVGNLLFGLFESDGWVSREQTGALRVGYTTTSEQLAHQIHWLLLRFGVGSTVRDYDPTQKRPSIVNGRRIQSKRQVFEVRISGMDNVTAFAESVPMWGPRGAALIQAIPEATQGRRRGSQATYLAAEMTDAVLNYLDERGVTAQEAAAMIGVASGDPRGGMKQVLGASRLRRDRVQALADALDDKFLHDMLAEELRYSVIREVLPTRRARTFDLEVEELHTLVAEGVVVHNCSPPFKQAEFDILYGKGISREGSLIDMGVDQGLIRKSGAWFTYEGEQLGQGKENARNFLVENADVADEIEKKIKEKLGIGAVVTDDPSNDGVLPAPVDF
# [2] = biological target: T2, Replicative DNA helicase DnaB (Mycobacterium tuberculosis, UniProt P9WMR3); assay: DnaB intein splicing inhibitors, dose response, biochemical, cell-free fluorescence (AID 449749)
# T2 sequence (P9WMR3 whole entry): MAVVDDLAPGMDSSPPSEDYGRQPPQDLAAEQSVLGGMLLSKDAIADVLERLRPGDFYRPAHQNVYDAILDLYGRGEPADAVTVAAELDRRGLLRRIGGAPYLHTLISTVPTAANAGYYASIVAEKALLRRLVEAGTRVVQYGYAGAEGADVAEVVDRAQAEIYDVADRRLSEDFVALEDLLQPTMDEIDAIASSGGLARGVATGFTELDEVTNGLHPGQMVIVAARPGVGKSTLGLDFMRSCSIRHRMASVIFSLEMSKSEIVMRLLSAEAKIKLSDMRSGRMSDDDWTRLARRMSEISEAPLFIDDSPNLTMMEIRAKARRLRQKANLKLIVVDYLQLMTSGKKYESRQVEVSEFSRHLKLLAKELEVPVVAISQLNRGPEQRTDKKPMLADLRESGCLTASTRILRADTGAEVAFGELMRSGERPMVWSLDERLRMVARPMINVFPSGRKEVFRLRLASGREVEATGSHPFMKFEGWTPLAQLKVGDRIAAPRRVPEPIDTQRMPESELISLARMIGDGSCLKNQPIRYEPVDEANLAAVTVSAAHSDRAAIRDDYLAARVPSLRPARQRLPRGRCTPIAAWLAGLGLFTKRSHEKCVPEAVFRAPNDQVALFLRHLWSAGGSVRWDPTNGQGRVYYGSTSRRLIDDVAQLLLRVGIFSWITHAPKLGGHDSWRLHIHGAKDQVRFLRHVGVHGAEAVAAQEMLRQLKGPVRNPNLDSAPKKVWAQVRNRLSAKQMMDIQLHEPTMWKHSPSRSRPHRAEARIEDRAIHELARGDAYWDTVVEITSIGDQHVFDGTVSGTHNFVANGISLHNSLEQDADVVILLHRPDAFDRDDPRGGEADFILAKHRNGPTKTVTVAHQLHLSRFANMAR
# [3] = biological target: T3, Apoptotic protease-activating factor 1 (Homo sapiens, UniProt O14727)
# T3 sequence (O14727 whole entry): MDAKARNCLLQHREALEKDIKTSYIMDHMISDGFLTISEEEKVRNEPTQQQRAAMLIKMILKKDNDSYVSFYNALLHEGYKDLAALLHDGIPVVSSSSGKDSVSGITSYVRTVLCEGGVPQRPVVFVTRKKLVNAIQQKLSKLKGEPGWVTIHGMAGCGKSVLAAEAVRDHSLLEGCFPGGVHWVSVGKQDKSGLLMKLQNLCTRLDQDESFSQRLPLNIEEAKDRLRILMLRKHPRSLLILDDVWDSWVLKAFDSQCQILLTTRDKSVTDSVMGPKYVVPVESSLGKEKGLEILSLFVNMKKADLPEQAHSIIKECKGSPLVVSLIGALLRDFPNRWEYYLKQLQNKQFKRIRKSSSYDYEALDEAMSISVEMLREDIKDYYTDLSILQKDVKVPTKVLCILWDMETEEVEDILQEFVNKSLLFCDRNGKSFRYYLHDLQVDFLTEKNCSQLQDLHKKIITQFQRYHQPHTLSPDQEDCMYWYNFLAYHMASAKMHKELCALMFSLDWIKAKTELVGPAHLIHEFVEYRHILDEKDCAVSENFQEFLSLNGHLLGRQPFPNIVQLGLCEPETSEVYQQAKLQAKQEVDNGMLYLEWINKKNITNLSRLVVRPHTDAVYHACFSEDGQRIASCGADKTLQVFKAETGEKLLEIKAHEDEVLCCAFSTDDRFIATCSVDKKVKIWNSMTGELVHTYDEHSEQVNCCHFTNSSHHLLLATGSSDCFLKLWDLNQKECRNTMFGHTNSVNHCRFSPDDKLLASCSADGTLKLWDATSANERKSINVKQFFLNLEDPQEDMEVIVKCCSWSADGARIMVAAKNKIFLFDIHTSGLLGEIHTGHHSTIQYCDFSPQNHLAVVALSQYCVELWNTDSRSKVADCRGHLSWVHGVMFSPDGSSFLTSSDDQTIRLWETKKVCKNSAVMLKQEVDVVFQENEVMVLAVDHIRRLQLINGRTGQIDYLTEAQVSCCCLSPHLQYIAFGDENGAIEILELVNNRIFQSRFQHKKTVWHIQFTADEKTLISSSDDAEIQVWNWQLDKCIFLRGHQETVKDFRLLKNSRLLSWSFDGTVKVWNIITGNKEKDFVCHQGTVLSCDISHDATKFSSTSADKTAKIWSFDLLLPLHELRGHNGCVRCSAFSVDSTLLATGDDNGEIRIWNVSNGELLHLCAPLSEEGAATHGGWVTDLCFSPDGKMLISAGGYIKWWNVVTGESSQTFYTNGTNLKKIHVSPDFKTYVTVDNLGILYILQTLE
# [4] = viability of PTEN-deleted HCT116 cells – cell-based, HCT116 PTEN knockout, dose response (AID 1047);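 further: HCT116 colon tumor cells with PTEN knocked out; cells exposed to compound for 60 hours before readout; potency for loss of cell viability measured by luminescence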
Compound,EC50 [1],AC50 [2],IC50 [3],EC50 [4]
O=C1c2cc(F)ccc2-n2c1nc1ccccc1c2=O,> 380 µM (inactive),> 120 µM (inactive),3.8 µM (active),–
CCOC(=O)C1=C(c2ccc(OC)cc2)C(=O)c2ccccc2C1=O,1.83 µM (active),4.41 µM (active),–,3.57 µM (active)
COCCCNC(=O)c1ccc2c3c(onc13)-c1ccccc1C2=O,13 µM (active),–,15.7 µM (active),–
O=C1C=C(N(CCO)Cc2ccccc2)c2ccccc2C1=O,0.402 µM (active),> 380 µM (inconclusive),–,–
CCC(=O)OCCNc1cc(Sc2nccn2C)c2nonc2c1[N+](=O)[O-],1.37 µM (active),2.9 µM (active),–,4.83 µM (active)
CCCCn1c(NC(=O)c2ccccc2Cl)c(C#N)c2nc3ccccc3nc21,–,–,13.7 µM (active),–
CCc1ccc(OCC(=O)N/N=C2\CC(=O)c3ccccc32)cc1,1.24 µM (active),6.09 µM (active),18.5 µM (active),10.2 µM (active)
"O=C1C(=O)c2ccccc2-c2ccccc21 [9,10-PHENANTHRENEQUINONE]",7.45 µM (active),6.47 µM (active),0.549 µM (active),–
